Consider three compounds from the NIST ThermoML archive (doi:10.1016/j.jct.2015.05.011).

The structures appear in SMILES notation. ± gives the expanded uncertainty stated by the source.

The conditions of series [1]: Liquid; for viscosity: Falling or rolling sphere viscometry; for mass density: Vibrating tube method.
The nature of series [2]: refractive index (Na D-line) (dimensionless). The note with it: 298.15 K; 100 kPa; Liquid; Standard Abbe refractometry.
A short description of series [3]: xn = mol fraction of the nth substance listed. The note with it: 298.15 K; 100 kPa; Liquid; Falling or rolling sphere viscometry; x1 = 1.
A short description of series [4]: refractive index (Na D-line) (dimensionless); xn = mol fraction of the nth substance listed. The note with it: 298.15 K; 100 kPa; Liquid; Standard Abbe refractometry; x1 = 1.

Take `CCn1cc[n+](C)c1.N#C[C-](C#N)C#N` [1-ethyl-3-methyl-1H-imidazolium tricyanomethanide]: the viscosity (as a rule, the resistance of a fluid to flow) in series [1] (288.15 K, 101.33 kPa) was 19.9 ± 0.43 mPa·s; in series [1] (293.15 K, 101.33 kPa) it was 16.54 ± 0.35 mPa·s; in series [1] (298.15 K, 101.33 kPa) it was 14 ± 0.3 mPa·s; in series [1] (303.15 K, 101.33 kPa), 11.99 ± 0.26 mPa·s; in series [1] (308.15 K, 101.33 kPa), 10.32 ± 0.22 mPa·s; in series [1] (313.15 K, 101.33 kPa) it was 8.9 ± 0.19 mPa·s. In series [1] (318.15 K, 101.33 kPa), the viscosity amounted to 7.82 ± 0.17 mPa·s. In addition, the mass density (in general, mass per unit of volume) in series [1] (288.15 K, 101.33 kPa) is 1088.49 ± 0.15 kg/m3; in series [1] (293.15 K, 101.33 kPa), 1084.93 ± 0.15 kg/m3; in series [1] (298.15 K, 101.33 kPa) it was 1081.38 ± 0.15 kg/m3; in series [1] (303.15 K, 101.33 kPa), 1077.84 ± 0.15 kg/m3; in series [1] (308.15 K, 101.33 kPa) it was 1074.33 ± 0.15 kg/m3; in series [1] (313.15 K, 101.33 kPa), 1070.83 ± 0.15 kg/m3. Moreover, the mass density in series [1] (318.15 K, 101.33 kPa) stood at 1067.35 ± 0.14 kg/m3. Also, the refractive index (as a rule, the speed of light in vacuum divided by its phase velocity in the sample) in series [2] was found to be 1.51227 ± 0.00036.
In the case of `O` [water], the viscosity in series [1] (298.15 K, 100 kPa) was 0.89 ± 0.02 mPa·s. For the same compound, the refractive index in series [2] is recorded as 1.33252 ± 0.00035.
`O` [water] + CCn1cc[n+](C)c1.N#C[C-](C#N)C#N: in series [3], the viscosity is reported as 0.89 ± 0.02 mPa·s. Further, the refractive index in series [4] was determined as 1.33252 ± 0.00035.
